Patent US12521393B2, “Cytotoxicity targeting chimeras for CCR2-expressing cells” (GLAXOSMITHKLINE INTELLECTUAL PROPERTY DEVELOPMENT LIMITED, priority 2021, dated 2026)

Assays:
[1] = test system: endogenous target monocytes in human PBMC; assay: PBMC ex vivo monocyte depletion flow cytometry assay (Example 200); assay type: cell-based; conditions: with anti-cotinine antibody (SEQ ID NO: 11/12), 18-24 hours, EC50 in molar, read-out: Ex Vivo Depletion Assay pEC50 (converted)
Procedure, shortened: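 Monocyte depletion is reported as pEC50, averaged or given individually across runs, and read by flow cytometry staining CD45, CD14 and CD4 with a viability dye. Compounds, diluted four-fold over 11 points from 1 mM DMSO stocks, were combined with 30 μg/mL Fc-enhanced anti-cotinine antibody and human PBMC, then incubated 18-24 h at 37° C.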

[2] = biological target: anti-cotinine antibody (SEQ ID NO: 11/12, rabbit variable region with human IgG1 Fc DE mutation); assay: SPR binding of anti-cotinine antibody to ARM compounds, Biacore T200, 37° C. (Example 202); conditions: SPR Biacore T200, 37° C., pH 7.4, antibody SEQ ID NO: 11/12 captured on protein A; Kd in molar
Procedure, shortened: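 Run at 37 °C in 10 mM HEPES pH 7.4, 150 mM NaCl, 0.005% P20, 1% DMSO, with compounds titrated from 200 nM (five 3-fold steps) over protein A–captured antibody. A 1:1 kinetic model on double-referenced data gave rate constants, Kd as koff/kon and residence time 1/koff; results as pKd, run-averaged.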

[3] = test system: CCR2 expressing cells (CD11b+Ly6c+Hi) in peripheral blood; assay: In vivo depletion assay, flow cytometry of peripheral blood (Example 201); design: species or system human CCR2 knock-in mice (C57 background); conditions: hCCR2 knock-in mice, IV 0.1 mpk compound + 10 mpk anti-cotinine antibody (SEQ ID NO: 13/14), peripheral blood at 48 hr
Procedure, shortened: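 Flow cytometry of blood collected at study termination quantified percent depletion of CD11b+Ly6c+Hi cells and CCR2 expression, using surface markers CD45, CD3, CD11b, Ly6C, human CCR2 after Fc block, with 7AAD viability stain. Compound given in saline:DMSO:PBS formulation, optionally combined with anti-cotinine antibody, incubated 30 min before administration.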

Row | SMILES | EC50 [1] [pM] | pKd of Antibody for ARM Compound of Formula (I) [2] | % Depletion of CCR2 expressing cells [3] [%]
1 | CN1C(=O)C[C@H](C(=O)NCCO[C@H]2CC[C@@H](OCCCC(=O)N[C@H]3CC[C@H](C(=O)N[C@@H]4C[C@H](NC(C)(C)C)CC[C@@H]4N4CC[C@H](Nc5ncnc6ccc(C(F)(F)F)cc56)C4=O)CC3)CC2)[C@H]1c1cccnc1 [Example 2, (2S,3S)-N-(2-(((1S,4R)-4-(4-(((1R,4R)-4-(((1R,2S,5R)-5-(tert-Butylamino)-2-((S)-2-oxo-3-((6-(trifluoromethyl)quinazolin-4-yl)amino)pyrrolidin-1-yl)cyclohexyl)carbamoyl)cyclohexyl)amino)-4-oxobutoxy)cyclohexyl)oxy)ethyl)-1-methyl-5-oxo-2-(pyridin-3-yl)pyrrolidine-3-carboxamide] | 398 | 9.4775 | 92.3
2 | CC(C)N(C)[C@@H]1CC[C@H](N2CC[C@H](Nc3ncnc4ccc(C(F)(F)F)cc34)C2=O)[C@H](NC(=O)[C@H]2CC[C@@H](NC(=O)CCCO[C@H]3CC[C@@H](OCCNC(=O)[C@H]4CC(=O)N(C)[C@@H]4c4cccnc4)CC3)CC2)C1 [Example 3, (2S,3S)-N-(2-(((1S,4R)-4-(4-(((1S,4S)-4-(((1R,2S,5R)-5-(Isopropyl(methyl)amino)-2-((S)-2-oxo-3-((6-(trifluoromethyl)quinazolin-4-yl)amino)pyrrolidin-1-yl)cyclohexyl)carbamoyl)cyclohexyl)amino)-4-oxobutoxy)cyclohexyl)oxy)ethyl)-1-methyl-5-oxo-2-(pyridin-3-yl)pyrrolidine-3-carboxamide] | 501 | 9.2795 | 87
3 | CC(C)N(C)[C@@H]1CC[C@H](N2CC[C@H](Nc3ncnc4ccc(C(F)(F)F)cc34)C2=O)[C@H](NC(=O)[C@H]2CC[C@H](NC(=O)CCCO[C@H]3CC[C@@H](OCCNC(=O)[C@H]4CC(=O)N(C)[C@@H]4c4cccnc4)CC3)CC2)C1 [Example 4, (2S,3S)-N-(2-(((1S,4R)-4-(4-(((1R,4R)-4-(((1R,2S,5R)-5-(Isopropyl(methyl)amino)-2-((S)-2-oxo-3-((6-(trifluoromethyl)quinazolin-4-yl)amino)pyrrolidin-1-yl)cyclohexyl)carbamoyl)cyclohexyl)amino)-4-oxobutoxy)cyclohexyl)oxy)ethyl)-1-methyl-5-oxo-2-(pyridin-3-yl)pyrrolidine-3-carboxamide] | 1000 | 9.526 | 78.8
4 | CC(C)N(C)[C@@H]1CC[C@H](N2CC[C@H](Nc3ncnc4ccc(C(F)(F)F)cc34)C2=O)[C@H](NC(=O)CCOCCNC(=O)CCCO[C@H]2CC[C@@H](OCCNC(=O)[C@H]3CC(=O)N(C)[C@@H]3c3cccnc3)CC2)C1 [Example 6, (2S,3S)-N-(2-(((1s,4R)-4-(4-((2-(3-(((1R,2S,5R)-5-(Isopropyl(methyl)amino)-2-((S)-2-oxo-3-((6-(trifluoromethyl)quinazolin-4-yl)amino)pyrrolidin-1-yl)cyclohexyl)amino)-3-oxopropoxy)ethyl)amino)-4-oxobutoxy)cyclohexyl)oxy)ethyl)-1-methyl-5-oxo-2-(pyridin-3-yl)pyrrolidine-3-carboxamide] | 200 | 9.282 | 82
5 | CC(C)N(C)[C@@H]1CC[C@H](N2CC[C@H](Nc3ncnc4ccc(C(F)(F)F)cc34)C2=O)[C@H](NC(=O)[C@H]2CC[C@H](NC(=O)CCCO[C@H]3CC[C@H](OCCNC(=O)[C@H]4CC(=O)N(C5CC5)[C@@H]4c4cccnc4)CC3)CC2)C1 [Example 13, (2S,3S)-1-cyclopropyl-N-(2-(((1R,4S)-4-(4-(((1R,4R)-4-(((1R,2S,5R)-5-(isopropyl(methyl)amino)-2-((S)-2-oxo-3-((6-(trifluoromethyl)quinazolin-4-yl)amino)pyrrolidin-1-yl)cyclohexyl)carbamoyl)cyclohexyl)amino)-4-oxobutoxy)cyclohexyl)oxy)ethyl)-5-oxo-2-(pyridin-3-yl)pyrrolidine-3-carboxamide] | – | 10.511 | 96.07
6 | CC(C)N(C)[C@@H]1CC[C@H](N2CC[C@H](Nc3ncnc4ccc(C(F)(F)F)cc34)C2=O)[C@H](NC(=O)[C@H]2CC[C@H](CNC(=O)CCCC(=O)NCCCOCCCNC(=O)[C@H]3CC(=O)N(C)[C@@H]3c3cccnc3)CC2)C1 [Example 20, N1-(((1R,4r)-4-(((1R,2S,5R)-5-(Isopropyl(methyl)amino)-2-((S)-2-oxo-3-((6-(trifluoromethyl)quinazolin-4-yl)amino)pyrrolidin-1-yl)cyclohexyl)carbamoyl)cyclohexyl)methyl)-N5-(3-(3-((2S,3S)-1-methyl-5-oxo-2-(pyridin-3-yl)pyrrolidine-3-carboxamido)propoxy)propyl)glutaramide] | 316 | 8.8705 | 79
7 | CN1C(=O)C[C@H](C(=O)NCCOCCOCCOCCC(=O)N[C@H]2CC[C@H](C(=O)N[C@@H]3C[C@H](NC(C)(C)C)CC[C@@H]3N3CC[C@H](Nc4ncnc5ccc(C(F)(F)F)cc45)C3=O)CC2)[C@H]1c1cccnc1 [Example 31, (2S,3S)-N-(2-(2-(2-(3-(((1S,4s)-4-(((1R,2S,5R)-5-(tert-Butylamino)-2-((S)-2-oxo-3-((6-(trifluoromethyl)quinazolin-4-yl)amino)pyrrolidin-1-yl)cyclohexyl)carbamoyl)cyclohexyl)amino)-3-oxopropoxy)ethoxy)ethoxy)ethyl)-1-methyl-5-oxo-2-(pyridin-3-yl)pyrrolidine-3-carboxamide] | 3160 | 9.3015 | 94.9
8 | CC(C)N(C)[C@@H]1CC[C@H](N2CC[C@H](Nc3ncnc4ccc(C(F)(F)F)cc34)C2=O)[C@H](NC(=O)[C@H]2CC[C@H](CNC(=O)CCOCCOCCOCCNC(=O)[C@H]3CC(=O)N(C)[C@@H]3c3cccnc3)CC2)C1 [Example 32, (2S,3S)-N-(1-((1S,4s)-4-(((1R,2S,5R)-5-(Isopropyl(methyl)amino)-2-((S)-2-oxo-3-((6-(trifluoromethyl)quinazolin-4-yl)amino)pyrrolidin-1-yl)cyclohexyl)carbamoyl)cyclohexyl)-3-oxo-6,9,12-trioxa-2-azatetradecan-14-yl)-1-methyl-5-oxo-2-(pyridin-3-yl)pyrrolidine-3-carboxamide] | 398 | 9.1825 | 83
9 | CC(C)N(C)[C@@H]1CC[C@H](N2CC[C@H](Nc3ncnc4ccc(C(F)(F)F)cc34)C2=O)[C@H](NC(=O)CCOCCNC(=O)CCOCCNC(=O)CCOCCNC(=O)[C@H]2CC(=O)N(C)[C@@H]2c2cccnc2)C1 [Example 46, (2S,3S)-N-(20-(((1R,2S,5R)-5-(Isopropyl(methyl)amino)-2-((S)-2-oxo-3-((6-(trifluoromethyl)quinazolin-4-yl)amino)pyrrolidin-1-yl)cyclohexyl)amino)-6,13,20-trioxo-3,10,17-trioxa-7,14-diazaicosyl)-1-methyl-5-oxo-2-(pyridin-3-yl)pyrrolidine-3-carboxamide] | 501 | 9.074 | 96
10 | CC(C)N(C)[C@@H]1CC[C@H](N2CC[C@H](Nc3ncnc4ccc(C(F)(F)F)cc34)C2=O)[C@H](NC(=O)[C@H]2CC[C@@H](NC(=O)CCCC(=O)NCCCC(=O)NCCCNC(=O)[C@H]3CC(=O)N(C)[C@@H]3c3cccnc3)CC2)C1 [Example 56, N^1-((1S,4s)-4-(((1R,2S,5R)-5-(Isopropyl(methyl)amino)-2-((S)-2-oxo-3-((6-(trifluoromethyl)quinazolin-4-yl)amino)pyrrolidin-1-yl)cyclohexyl)carbamoyl)cyclohexyl)-N^5-(4-((3-((2S,3S)-1-methyl-5-oxo-2-(pyridin-3-yl)pyrrolidine-3-carboxamido)propyl)amino)-4-oxobutyl)glutaramide] | – | 9.3185 | 97
11 | CC(C)N(C)[C@@H]1CC[C@H](N2CC[C@H](Nc3ncnc4ccc(C(F)(F)F)cc34)C2=O)[C@H](NC(=O)[C@H]2CC[C@@H](NC(=O)CNC(=O)CCOCCOCCNC(=O)[C@H]3CC(=O)N(C)[C@@H]3c3cccnc3)CC2)C1 [Example 83, (2S,3S)-N-(2-(2-(3-((2-(((1S,4s)-4-(((1R,2S,5R)-5-(Isopropyl(methyl)amino)-2-((S)-2-oxo-3-((6-(trifluoromethyl)quinazolin-4-yl)amino)pyrrolidin-1-yl)cyclohexyl)carbamoyl)cyclohexyl)amino)-2-oxoethyl)amino)-3-oxopropoxy)ethoxy)ethyl)-1-methyl-5-oxo-2-(pyridin-3-yl)pyrrolidine-3-carboxamide] | – | 9.302 | 67
